Where two headings read alike, the source gives them in different places.
What was measured:
[1] = system: malignant melanoma cell lines A375, SK-MEL28, FM55P, FM55M2; test: MTT cell viability assay, four melanoma lines taken together; assay type: cell-based, human; settings: for IC50: read-out: IC50 range depending on the melanoma cell line; for effect on melanoma cell viability (in words): four melanoma lines
Protocol: (§1) All tested cell lines—the HaCaT cell line model of human keratinocyte cells (density: 1 × 10^4 cells/mL) and four human malignant melanoma lines (density: 2–3 × 10^4 cells/mL, depending on the cell line—were plated on microtiter plates (NEST Biotechnology, Wuxi, China). After a day (24 h) of incubation, the medium was replaced with a fresh medium to which increasing concentrations of the tested substances were added. The experimental steps of the MTT assay were previously described. Each experiment in the MTT assay was performed in triplicate to ensure the repeatability and validity of the results.
(§2) Data were presented as means ± standard errors (SEMs).

[2] = system: FM55P malignant melanoma cell line; test: MTT cell viability assay, FM55P; assay type: cell-based; settings: Homo sapiens, 72 h
Protocol: as §1, §2

[3] = system: mouse melanoma B16(F10) cells; settings: B16F10; cited from earlier work
[4] = system: malignant melanoma cell lines A375, SK-MEL28, FM55P, FM55M2; test: LDH cytotoxicity assay, melanoma lines; settings: 72 h
Protocol: Four malignant melanoma cell lines, FM55P, FM55M2 (ECACC, Public Health England, Porton Down, UK), A375 and SK-MEL28 (ATCC, Manassas, VA, USA) were used. The immortalized human normal keratinocyte (HaCaT; ATCC, Manassas, VA, USA) served as a reference cell line. Of note, the A375 cell line is the original and not a CRISPR-modified version of the cell line, and all the tested cell lines in this study have the BRAF V600E mutation. The experimental cell culture conditions were as follows: 37 °C in a humidified atmosphere of 95% air and 5% CO2. The culture media used were as follows: for A375—DMEM high glucose; for SK-MEL28—EMEM; and for FM55P and FM55M2—RPMI1640 (All from Sigma-Aldrich, St. Louis, MO, USA). Previous publications described in more detail the growth conditions of these cell line cultures.
Specified densities (as above) of all the studied melanoma and normal human cell line were plated on microtiter plates (NEST). […] The LDH test was carried out after 72 h of incubation with the tested terpenes according to the manufacturer’s instructions. A more detailed description of the steps of the LDH test was previously provided.
GraphPad Prism (version 8.0, San Diego, CA, USA) was used for statistical analysis of the data (from the MTT and LDH tests). The analyses were performed with a one-way ANOVA test followed by Tukey’s post hoc test. Data were presented as means ± standard errors (SEMs). The median inhibitory concentration (IC50) values for the tested terpenes were calculated automatically with a computer-assisted log-probit method using an MS Excel spreadsheet, as previously described.

A549 line = system: A549 line; set-up: method as in PMID 31202132; settings: cited from earlier work
[5] = system: normal human keratinocytes HaCaT; test: MTT cell viability assay, normal keratinocytes; assay type: cell-based; settings: for IC50: Homo sapiens
Protocol: as §1, §2

[6] = system: FM55M2 malignant melanoma cell line; test: MTT cell viability assay, FM55M2; assay type: cell-based; settings: Homo sapiens, 72 h
Protocol: as §1, §2

[7] = system: A375 malignant melanoma cell line; test: MTT cell viability assay, A375; assay type: cell-based; settings: Homo sapiens
Protocol: as §1, §2

[8] = system: SK-MEL28 malignant melanoma cell line; test: MTT cell viability assay, SK-MEL28; assay type: cell-based; settings: Homo sapiens
Protocol: as §1, §2

MCF-7 breast cancer line = system: MCF-7 breast cancer line; set-up: method as in PMID 32772589; settings: cited from earlier work
MDA-MB-231 cells = system: MDA-MB-231 cells; set-up: method as in PMID 32772589; settings: cited from earlier work
[9] = system: B16-F10 mouse melanoma cell lines; set-up: method as in PMID 22352891; settings: B16-F10, MTT test, cited from earlier work
[10] = system: A549 lung cancer cell line; set-up: method as in PMID 32420353; settings: cited from earlier work
[11] = system: 4T1 breast cancer cell line; set-up: method as in PMID 32526880, PMID 30733560; settings: cited from earlier work
[12] = system: MDA MB-231 breast cancer cell line; set-up: method as in PMID 32526880, PMID 30733560; settings: cited from earlier work
[13] = system: SW620 colon cancer cell line; set-up: method as in PMID 31323842; settings: cited from earlier work
[14] = system: H1299 lung cancer cell line; set-up: method as in PMID 32420353; settings: cited from earlier work
[15] = system: HT29 colon cancer cell line; set-up: method as in PMID 31323842; settings: cited from earlier work
[16] = system: human cervical cancer, human lung cancer, monkey kidney cells and mouse macrophages; set-up: method as in doi:10.1590/S0044-59672007000200015; settings: 200 µg/mL (≈1.5 mM); cited from earlier work
[17] = system: liver cancer cell lines and mouse melanoma B16-F10; set-up: method as in PMID 23453306; settings: authors' conversion of the μg/mL values; cited from earlier work
[18] = system: colo-205 colon cancer cell line; settings: cited from earlier work
[19] = system: Ishikawa cell line, of endometrial cancer; settings: 24 h of incubation; cited from earlier work
A431 skin cancer line = settings: A431, MTT assay; cited from earlier work
[20] = A549, authors' conversion, read-out: IC50
[21] = range over the four human melanoma lines, MTT, 72 h
[22] = FM55P, MTT assay, mean ± SEM, read-out: IC50
[23] = HaCaT, MTT assay, 72 h, mean ± SEM, read-out: IC50
[24] = FM55M2, MTT assay, mean ± SEM, read-out: IC50
[25] = A-375, A375, MTT assay, 72 h, mean ± SEM, read-out: IC50
[26] = SK-MEL-28, SK-MEL28, MTT assay, 72 h, mean ± SEM, read-out: IC50

| IC50 range depending on the melanoma cell line [1, 21] | IC50 [1, 21] [µM] | IC50 [2, 22] [µM] | IC50 [6, 24] [µM] | IC50 [7, 25] [µM] | IC50 [8, 26] [µM] | Structure (SMILES) | effect on melanoma cell viability (in words) ([1]; MTT, 72 h) | concentration with statistically significant cytotoxicity towards melanoma cells [4] | effect on normal keratinocyte cells (in words) ([5]; HaCaT, MTT) | concentration significantly affecting viability of normal keratinocytes ([5]; HaCaT, MTT, 72 h) [µM] | IC50 [5, 23] [µM] | other results |
| --- | --- | --- | --- | --- | --- | --- | --- | --- | --- | --- | --- | --- |
| could not be determined |  |  |  |  |  | C=C(C)CCC[C@H](C)CCO [Rhodinol, rhodinol] | did not show any significant activity |  |  | ≥ 4800 |  | concentration significantly affecting viability of melanoma cell lines ([1]; MTT, 72 h): ≥ 4.8 mM |
|  | 2170 to 4810 | 2450 ± 380 | 2170 ± 300 | 3630 ± 560 | 4810 ± 290 | CC(C)=CCCC(C)CCO (stereo not drawn) [Citronellol, citronellol] | showed a significant anti-viability effect | above 4.2 mM |  | 1200 to 6000 | 6270 ± 1150 | IC50 (MCF-7 breast cancer line): 80 µM; IC50 (MDA-MB-231 cells): 35 µM |
|  | 270 to 440 | 330 ± 20 | 420 ± 20 | 270 ± 30 | 440 ± 30 | CC(C)=CCC/C(C)=C/CO [Geraniol, geraniol] | showed a significant anti-viability effect |  |  |  | > 650 | IC50 [18]: 20 µM; IC50 [19]: 260 µM; IC50 [3]: 150 ± 19 µM; IC50 (A431 skin cancer line): 98 µM |

More lines, now with the values behind:

| Structure (SMILES) | IC50 range depending on the melanoma cell line [1, 21] | IC50 [1, 21] [µM] | IC50 [2, 22] [µM] | IC50 [6, 24] [µM] | IC50 [7, 25] [µM] | IC50 [8, 26] [µM] | effect on melanoma cell viability (in words) ([1]; MTT, 72 h) | concentration with statistically significant cytotoxicity towards melanoma cells [4] | effect on normal keratinocyte cells (in words) ([5]; HaCaT, MTT) | concentration significantly affecting viability of normal keratinocytes ([5]; HaCaT, MTT, 72 h) [µM] | IC50 [5, 23] [µM] | other results |
| --- | --- | --- | --- | --- | --- | --- | --- | --- | --- | --- | --- | --- |
| Cc1ccc(C(C)C)cc1O [Carvacrol, carvacrol] |  |  |  |  |  |  | showed a significant anti-viability effect | 50 to 650 µM | did not negatively affect normal human keratinocyte cells |  |  | IC50 ([1]; Homo sapiens, 72 h): 50 to 60 µM; selectivity index ([1]; SI = IC50 for HaCaT / IC50 for respective melanoma cell line, MTT): above 10; IC50 [2]: 60 ± 10 µM; IC50 [3]: 120 ± 15 µM; IC50 (A549 line; [20]): ~670 µM; IC50 (A549 line; A549): 100 µg/mL; concentration up to which HaCaT viability was not significantly affected ([5]; HaCaT, MTT, 72 h): ≤ 650 µM; IC50 ([5]; HaCaT, 72 h): > 650 µM; IC50 [6]: 50 µM; IC50 ([7]; A-375, 72 h): 60 µM; IC50 ([8]; SK-MEL-28, 72 h): 60 ± 10 µM |
| Cc1ccc(C(C)C)c(O)c1 [Thymol, thymol] |  | 460 to 530 | 460 ± 50 | 530 ± 50 | 480 ± 40 | 510 ± 30 | showed a significant anti-viability effect | above 0.03 mM | at high concentrations, it affects the viability of normal cell lines without cytotoxicity |  | > 1300 | IC50 ([9]; authors' conversion, read-out: IC50): 400 µM; IC50 [9]: 60.09 µg/mL; concentration from which cytotoxicity was statistically significant ([4]; SK-MEL28 line): ≥ 30 µM |
| CC(C)=CCC/C(C)=C/C=O [Citral, citral] |  | 80 to 130 | 90 ± 10 | 80 | 130 ± 10 | 100 ± 10 | showed a significant anti-viability effect | above 0.2 mM | at high concentrations, it had a negative effect on normal keratinocyte cells |  | 290 ± 10 | IC50 [10, 20]: ~11 µM; IC50 ([10]; A549): 1.73 ± 0.37 µg/mL; IC50 ([11]; 4T1, authors' conversion, read-out: IC50): ~140 µM; IC50 ([11]; 4T1): 21.4 ± 2.82 µg/mL; IC50 ([12]; MDA MB-231, authors' conversion, read-out: IC50): ~135 µM; IC50 ([12]; MDA MB-231): 20.5 ± 1.41 µg/mL; IC50 ([13]; SW620, authors' conversion, read-out: IC50): ~148 µM; IC50 ([13]; SW620): 22.50 ± 2.50 µg/mL; IC50 ([14]; H1299, authors' conversion, read-out: IC50): ~26 µM; IC50 ([14]; H1299): 4.01 ± 0.30 µg/mL; inhibition of HaCaT proliferation ([5]; 0.3 mM, MTT): up to 28%; inhibition of HaCaT proliferation ([5]; highest concentration of 0.4 mM, MTT): approximately 10%; IC50 ([15]; HT29, authors' conversion, read-out: IC50): ~143 µM; IC50 ([15]; HT29): 21.77 ± 0.23 µg/mL |
| CC(C)=CCC/C(C)=C\CO [Nerol, nerol] | could not be determined |  |  |  |  |  | Its effect was not significant |  |  |  |  | concentration significantly affecting viability of melanoma cell lines ([1]; MTT, 72 h): 0.13 to 0.65 mM; concentration significantly affecting viability of normal keratinocytes ([5]; human, 72 h): 650 µM |
| C=CC(=C)CCC=C(C)C [Myrcene, myrcene] | could not be determined |  |  |  |  |  |  |  |  | 3000 |  | concentration up to which no significant inhibition of melanoma line growth ([1]; MTT, 72 h): up to 5 mM; cytotoxic activity (in words) [16]: no cytotoxic activity; IC50 [17]: 70 to 90 µM |
